One assay concerns the target human Cat S (Homo sapiens (Human), UniProt P25774). Kind of assay: Cathepsin enzyme inhibition assay (human Cat S). The assay is classed as biochemical. As to conditions: enzyme 1 nM, substrate Z-Val-Val-Arg-AMC 20 μM. As to the method: (§1) Cathepsin Enzyme Inhibition Assay
(§2) Enzyme activity is measured by observing the increase in fluorescence intensity caused by cleavage of a peptide substrate containing a fluorophore whose emission is quenched in the intact peptide.
(§3) Assay buffer: 100 mM potassium phosphate pH 6.5, EDTA-Na 5 mM, Triton X-100 0.001%, DTT 5 mM.
(§4) Enzymes (all at 1 nM): human and mouse Cathepsin S, Cat K, Cat B, Cat L.
(§5) Substrate (20 μM): Z-Val-Val-Arg-AMC, except for Cat K which uses Z-Leu-Arg-AMC (both from Bachem).
Enzyme is added to the substance dilutions in 96-well microtitre plates and the reaction is started with substrate. […] IC50 are calculated by standard methods.
Inhibition of human Cat S, mouse Cat S, human Cat K, human Cat B, human Cat L and mouse Cat L have been measured separately.

A further assay addresses human Cat L (Homo sapiens (Human), UniProt P07711). Briefly: Cathepsin enzyme inhibition assay (human Cat L). The assay is classed as biochemical. As to conditions: enzyme 1 nM, substrate Z-Val-Val-Arg-AMC 20 μM. The protocol: as §1, §2, §3, §4, §5
Excitation 360 nm, Emission 465 nm.
Enzyme is added to the substance dilutions in 96-well microtitre plates and the reaction is started with substrate. Fluorescence emission is measured over 20 minutes, during which time a linear increase is observed in the absence of inhibitor. IC50 are calculated by standard methods.
Inhibition of human Cat S, mouse Cat S, human Cat K, human Cat B, human Cat L and mouse Cat L have been measured separately. The results obtained for human Cat S and L for representative compounds of the invention are expressed in the following table in μM.

SMILES strings stand for the structures. Where a name gives a salt, the structure may show the parent alone.

human Cat S, sequence (P25774 115-331): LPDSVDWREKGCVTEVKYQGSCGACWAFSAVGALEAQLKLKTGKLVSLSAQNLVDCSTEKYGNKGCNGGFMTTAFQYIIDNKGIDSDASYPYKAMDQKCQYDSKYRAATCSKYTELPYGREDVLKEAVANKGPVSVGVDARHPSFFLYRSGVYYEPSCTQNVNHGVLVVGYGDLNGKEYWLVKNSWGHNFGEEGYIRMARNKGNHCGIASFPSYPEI
human Cat L, sequence (P07711 114-333): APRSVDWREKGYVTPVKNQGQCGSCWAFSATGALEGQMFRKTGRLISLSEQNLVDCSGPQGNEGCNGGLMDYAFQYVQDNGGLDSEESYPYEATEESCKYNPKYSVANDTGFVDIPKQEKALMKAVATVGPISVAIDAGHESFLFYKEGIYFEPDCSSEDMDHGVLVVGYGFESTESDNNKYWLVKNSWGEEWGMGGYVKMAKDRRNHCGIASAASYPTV

With `CC(C)(C)OC(=O)N1CCC1(C(=O)N1C[C@H](S(=O)(=O)c2ccc(F)cc2Cl)C[C@H]1C(=O)NC1(C#N)CC1)c1ncc(Cl)cc1F` (stereo partly drawn) [Example 24, 2-[(2S,4R)-4-(2-Chloro-4-fluoro-benzenesulfonyl)-2-(1-cyano-cyclopropylcarbamoyl)-pyrrolidine-1-carbonyl]-2-(5-chloro-3-fluoro-pyridin-2-yl)-azetidine-1-carboxylic acid tert-butyl ester], the figures for the IC50 on human Cat S (pH 6.5) and against human Cat L (pH 6.5) were 4.56 nM and 922 nM, respectively.

With `CC(C)(C)OC(=O)N1CC(C(=O)N2C[C@H](S(=O)(=O)c3ccc(OCC(F)(F)F)cc3Cl)C[C@H]2C(=O)NC2(C#N)CC2)(c2ccc(Br)cn2)C1` [Example 5, 3-(5-Bromo-pyridin-2-yl)-3-[(2S,4R)-4-[2-chloro-4-(2,2,2-trifluoro-ethoxy)-benzenesulfonyl]-2-(1-cyano-cyclopropylcarbamoyl)-pyrrolidine-1-carbonyl]-azetidine-1-carboxylic acid tert-butyl ester], the IC50 against human Cat S (pH 6.5) worked out at 3.69 nM; against human Cat L (pH 6.5) it was 753 nM.

For `N#CC1(NC(=O)[C@@H]2C[C@@H](S(=O)(=O)c3ccc(F)cc3Cl)CN2C(=O)C2(c3ncc(Br)cc3F)CCN2)CC1` (stereo partly drawn) [Example 36, (2S,4R)-1-[2-(5-Bromo-3-fluoro-pyridin-2-yl)-azetidine-2-carbonyl]-4-(2-chloro-4-fluoro-benzenesulfonyl)-pyrrolidine-2-carboxylic acid (1-cyano-cyclopropyl)-amide hydrochloride], the IC50 on human Cat S (pH 6.5) was 1.42 nM; against human Cat L (pH 6.5) it was 621 nM.

`C[C@H](Oc1ccc(S(=O)(=O)[C@@H]2C[C@@H](C(=O)NC3(C#N)CC3)N(C(=O)C3(c4ncc(Br)cc4F)CCN3)C2)c(Cl)c1)C(F)(F)F` (stereo partly drawn) [Example 39, (2S,4R)-1-[2-(5-Bromo-3-fluoro-pyridin-2-yl)-azetidine-2-carbonyl]-4-[2-chloro-4-((S)-2,2,2-trifluoro-1-methyl-ethoxy)-benzenesulfonyl]-pyrrolidine-2-carboxylic acid (1-cyano-cyclopropyl)-amide hydrochloride]: the IC50 at human Cat S (pH 6.5) came out at 5.46 nM; on human Cat L (pH 6.5) it was 26.9 nM.

`N#CC1(NC(=O)[C@@H]2C[C@@H](S(=O)(=O)c3ccc(OCC(F)(F)F)cc3Cl)CN2C(=O)C2(c3ccc(Cl)cn3)CNC2)CC1` [Example 6, (2S,4R)-1-[3-(5-Chloro-pyridin-2-yl)-azetidine-3-carbonyl]-4-[2-chloro-4-(2,2,2-trifluoro-ethoxy)-benzenesulfonyl]-pyrrolidine-2-carboxylic acid (1-cyano-cyclopropyl)-amide]: the IC50 against human Cat L (pH 6.5) was determined as 89.8 nM.

For the compound `Cc1cc(-c2ccc(S(=O)(=O)[C@@H]3C[C@@H](C(=O)NC4(C#N)CC4)N(C(=O)C4(c5ncc(Br)cc5F)CCN4)C3)c(Cl)c2)ccn1` (stereo partly drawn) [Example 44, (2S,4R)-1-[2-(5-Bromo-3-fluoro-pyridin-2-yl)-azetidine-2-carbonyl]-4-[2-chloro-4-(2-methyl-pyridin-4-yl)-benzenesulfonyl]-pyrrolidine-2-carboxylic acid (1-cyano-cyclopropyl)-amide hydrochloride], the results for the IC50 on human Cat S (pH 6.5) and against human Cat L (pH 6.5) were 2.08 nM and 70.6 nM, respectively.

In the case of `C[C@H](Oc1ccc(S(=O)(=O)[C@@H]2C[C@@H](C(=O)NC3(C#N)CC3)N(C(=O)C3(c4ncc(Br)cc4F)CCN3C(=O)OC(C)(C)C)C2)c(Cl)c1)C(F)(F)F` (stereo partly drawn) [Example 30, 2-(5-Bromo-3-fluoro-pyridin-2-yl)-2-[(2S,4R)-4-[2-chloro-4-((S)-2,2,2-trifluoro-1-methyl-ethoxy)-benzenesulfonyl]-2-(1-cyano-cyclopropylcarbamoyl)-pyrrolidine-1-carbonyl]-azetidine-1-carboxylic acid tert-butyl ester], the results for the IC50 at human Cat S (pH 6.5) and on human Cat L (pH 6.5) were 2.22 nM and 1060 nM, respectively.

Turning to `Cn1cc(-c2ccc(S(=O)(=O)[C@@H]3C[C@@H](C(=O)NC4(C#N)CC4)N(C(=O)C4(c5ncc(Cl)cc5F)CCN4C(=O)OC(C)(C)C)C3)c(Cl)c2)cn1` (stereo partly drawn) [Example 45, tert-butyl 2-(5-chloro-3-fluoropyridin-2-yl)-2-((2S,4R)-4-(2-chloro-4-(1-methyl-1H-pyrazol-4-yl)phenylsulfonyl)-2-(1-cyanocyclopropylcarbamoyl)pyrrolidine-1-carbonyl)azetidine-1-carboxylate], the IC50 is 0.965 nM against human Cat S (pH 6.5) and 625 nM at human Cat L (pH 6.5).

For the compound `CC(C)(C)OC(=O)N1CC(C(=O)N2C[C@H](S(=O)(=O)c3ccccc3Cl)C[C@H]2C(=O)NC2(C#N)CC2)(c2ncc(Br)cc2F)C1` [Example 11, tert-Butyl 3-(5-bromo-3-fluoropyridin-2-yl)-3-((2S,4R)-4-(2-chlorophenylsulfonyl)-2-(1-cyanocyclopropylcarbamoyl)pyrrolidine-1-carbonyl)azetidine-1-carboxylate], the figures for the half-maximal inhibitory concentration (IC50) on human Cat S (pH 6.5) and against human Cat L (pH 6.5) were 1.27 nM and 70.5 nM, respectively.

`Cc1cc(-c2ccc(S(=O)(=O)[C@@H]3C[C@@H](C(=O)NC4(C#N)CC4)N(C(=O)C4(c5ncc(Cl)cc5F)CCN4)C3)c(Cl)c2)ccn1` (stereo partly drawn) [Example 43, (2S,4R)-1-[2-(5-Chloro-3-fluoro-pyridin-2-yl)-azetidine-2-carbonyl]-4-[2-chloro-4-(2-methyl-pyridin-4-yl)-benzenesulfonyl]-pyrrolidine-2-carboxylic acid (1-cyano-cyclopropyl)-amide hydrochloride]: the IC50 stood at 2.33 nM against human Cat S (pH 6.5) and 86.6 nM against human Cat L (pH 6.5).

Turning to `N#CC1(NC(=O)[C@@H]2C[C@@H](S(=O)(=O)c3ccc(F)cc3Cl)CN2C(=O)C2(c3ncc(Cl)cc3F)CCN2)CC1` (stereo partly drawn) [Example 31, (2S,4R)-4-(2-Chloro-4-fluoro-benzenesulfonyl)-1-[2-(5-chloro-3-fluoro-pyridin-2-yl)-azetidine-2-carbonyl]-pyrrolidine-2-carboxylic acid (1-cyano-cyclopropyl)-amide; hydrochloride], the IC50 is 1.57 nM against human Cat S (pH 6.5, hydrochloride) and 81.6 nM on human Cat L (pH 6.5, hydrochloride).

For the compound `COc1ccc(S(=O)(=O)[C@@H]2C[C@@H](C(=O)NC3(C#N)CC3)N(C(=O)C3(c4ccc(Cl)cn4)CN(C(=O)OC(C)(C)C)C3)C2)c(Cl)c1` [Example 1, 3-[(2S,4R)-4-(2-Chloro-4-methoxy-benzenesulfonyl)-2-(1-cyano-cyclopropylcarbamoyl)-pyrrolidine-1-carbonyl]-3-(5-chloro-pyridin-2-yl)-azetidine-1-carboxylic acid tert-butyl ester], the figures for the IC50 at human Cat S (pH 6.5) and on human Cat L (pH 6.5) were 3.22 nM and 1070 nM, respectively.

Take `CN1CC(C(=O)N2C[C@H](S(=O)(=O)c3ccccc3Cl)C[C@H]2C(=O)NC2(C#N)CC2)(c2ncc(Cl)cc2F)C1` [Example 16, (2S,4R)-4-(2-Chloro-benzenesulfonyl)-1-[3-(5-chloro-3-fluoro-pyridin-2-yl)-1-methyl-azetidine-3-carbonyl]-pyrrolidine-2-carboxylic acid (1-cyano-cyclopropyl)-amide]: the IC50 at human Cat S (pH 6.5) was 0.525 nM; against human Cat L (pH 6.5) it was 39.8 nM.

Turning to `C[C@H](Oc1ccc(S(=O)(=O)[C@@H]2C[C@@H](C(=O)NC3(C#N)CC3)N(C(=O)C3(c4ncc(Br)cc4F)CN(C(=O)OC(C)(C)C)C3)C2)c(Cl)c1)C(F)(F)F` [Example 33, 3-(5-Bromo-3-fluoro-pyridin-2-yl)-3-[(2S,4R)-4-[2-chloro-4-((S)-2,2,2-trifluoro-1-methyl-ethoxy)-benzenesulfonyl]-2-(1-cyano-cyclopropylcarbamoyl)-pyrrolidine-1-carbonyl]-azetidine-1-carboxylic acid tert-butyl ester], the results for the half-inhibitory concentration (IC50) at human Cat S (pH 6.5) and on human Cat L (pH 6.5) were 3.54 nM and 89.5 nM, respectively.

For the compound `CN1CC(C(=O)N2C[C@H](S(=O)(=O)c3ccccc3Cl)C[C@H]2C(=O)NC2(C#N)CC2)(c2ncc(Br)cc2F)C1` [Example 14, (2S,4R)-1-[3-(5-Bromo-3-fluoro-pyridin-2-yl)-1-methyl-azetidine-3-carbonyl]-4-(2-chloro-benzenesulfonyl)-pyrrolidine-2-carboxylic acid (1-cyano-cyclopropyl)-amide], the IC50 at human Cat L (pH 6.5) is 12.5 nM.

`C[C@H](Oc1ccc(S(=O)(=O)[C@@H]2C[C@@H](C(=O)NC3(C#N)CC3)N(C(=O)C3(c4ncc(Cl)cc4F)CCN3C(=O)OC(C)(C)C)C2)c(Cl)c1)C(F)(F)F` (stereo partly drawn) [Example 27, tert-butyl 2-(5-chloro-3-fluoropyridin-2-yl)-2-((2S,4R)-4-(2-chloro-4-((S)-1,1,1-trifluoropropan-2-yloxy)phenylsulfonyl)-2-(1-cyanocyclopropylcarbamoyl)pyrrolidine-1-carbonyl)azetidine-1-carboxylate] gave a concentration for half-maximal inhibition (IC50) against human Cat L (pH 6.5) of 528 nM.

In turn, `C[C@H](Oc1ccc(S(=O)(=O)[C@@H]2C[C@@H](C(=O)NC3(C#N)CC3)N(C(=O)C3(c4ncc(Cl)cc4F)CCN3C(=O)OC(C)(C)C)C2)c(Cl)c1)C(F)(F)F` (stereo partly drawn) [Example 28, tert-butyl 2-(5-chloro-3-fluoropyridin-2-yl)-2-((2S,4R)-4-(2-chloro-4-((S)-1,1,1-trifluoropropan-2-yloxy)phenylsulfonyl)-2-(1-cyanocyclopropylcarbamoyl)pyrrolidine-1-carbonyl)azetidine-1-carboxylate] showed an IC50 on human Cat L (pH 6.5) of 556 nM.

The values are drawn from US8822505B2, “Azetidine derivatives” (Hoffmann-La Roche Inc., priority 2012, dated 2014).
